Data published in patent US20230365959A1, “METHOD FOR IMPROVING THE STABILITY OF A COMPOSITION COMPRISING A FLAVIN-DEPENDENT LACTATE DEHYDROGENASE” (KIKKOMAN CORPORATION, priority 2020, published 2023).

How the values were obtained:
Type in all cases: biochemical
[1] = test system: lactate dehydrogenase from Pichia kudriavzevii (PkLDH); assay: Chronoamperometry with printed electrode to which PkLDH plus stabilizer was applied and dried (5 mM mPMS/PBS); conditions: added compound 50 mM, +200 mV
Protocol: An enzyme electrode was prepared using the purified PkLDH preparation obtained above and chronoamperometry was carried out. Each of the compounds was added to an enzyme solution in advance and tested whether or not a stabilizing effect of the enzyme during a drying step was exerted. LDH (1 U) solutions comprising compounds in a concentration (0.2% (w/v), 2% (w/v) and 50 mM, respectively) as described in Table 8 were each applied to a screen-printed carbon electrode C110 (manufactured by Metrohm-Dropsens) in an amount of 4 μL and dried at 40° C. for 60 minutes. The same procedure was repeated using an LDH solution without adding any one of the compounds. Each of the electrodes prepared was connected to ALS electrochemical analyzer 814D (manufactured by BAS) using a dedicated connector (DRP-CAC, manufactured by Drop Sense). Subsequently, 100 μL of a 2 mM mPMS/PBS solution was added dropwise to dissolve the dried LDH. The applied voltage was +200 mV (vs Ag/Ag+). An L-sodium lactate solution was added and a response current value 5 seconds after initiation of measurement was recorded. […] Further, in the same manner as above, a 1 U LDH solution comprising 1% polyacrylic acid was applied to a screen printed carbon electrode and dried and then a 2 mM mPMS/PBS solution (100 μL) was added dropwise to dissolve the dried LDH. Then, an L-sodium lactate solution was added such that the final concentration thereof would be 2 to 10 mM, and a response current value 5 seconds after initiation of measurement was recorded.
Chronoamperometry was carried out by changing the concentration of the compound to be added as a stabilizer and the concentration of L-sodium lactate used as a substrate. To an electrode prepared in the same manner as in the preceding Section, 100 μL of a 5 mM mPMS/PBS solution was added dropwise to dissolve the dried LDH. A voltage of +200 mV (vs Ag/Ag+) was applied. An L-sodium lactate solution was added and a response current value 5 seconds after initiation of measurement was recorded.

[2] = test system: lactate dehydrogenase from Pichia kudriavzevii (PkLDH); assay: Thermal stability of PkLDH (residual activity ratio after heat treatment, potassium phosphate buffer); conditions: PkLDH 2 U/mL
Protocol: Thermal stability of LDH can be evaluated by heating LDH at a given temperature for a given time and comparing the activity thereof before and after heating. […] The LDH activity of an LDH solution which is allowed to stand still on ice without heating is taken as 100 and the LDH activity after heating is calculated and, the residual activity ratio (ratio of remaining activity) (%) can be determined.
More specifically, the residual activity ratio (%) can be obtained by measuring LDH activity value (a) of a solution before heat treatment or before long-term storage and LDH activity value (b) of a solution after heat treatment or after long-term storage and calculating ((b)/(a)×100).
Using the purified PkLDH preparation obtained above, the residual activity ratio (%) in the presence and absence of an LDH stabilizer were compared in accordance with the LDH thermal stability evaluation method mentioned previously, and in this manner, a stabilizer was searched.
(§1) The thermal stability of LDH was evaluated by heating LDH at a given temperature for a given time and comparing the activities before and after heating. […] Further, LDH activity of an LDH solution allowed to stand still on ice without any heat treatment was measured. Based on the activity of this case without any heat treatment taken as 100, the activities of LDH solutions after heat treatment were calculated to determine the residual activity ratio (%). More specifically, the residual activity ratio (%) can be obtained by measuring LDH activity value (a) of a solution before heat treatment or before long-term storage, and LDH activity value (b) of a solution after heat treatment or after long-term storage, and then, calculating ((b)/(a)×100).
The degree of LDH stability improving effect of each of the various added compounds was evaluated by preparing an LDH solution by allowing LDH to coexist with each of the various compounds, subjecting the solution to a heat treatment and determining the residual activity ratio (%) of the solution, and evaluating the residual activity (%) by mutually comparing the cases between compounds or comparing the case to a case where no compound was added.
(§2) The activity of LDH was determined in accordance with the following procedure. […] Subsequently, a 30 mM PMS solution (50 μL) and an enzyme sample solution (50 μL) were added to the mixture to initiate a reaction. Absorbance at 520 nm was measured at the time of initiation of the reaction and over time and, the degree of reduction (ΔA520) in absorbance per minute as the enzymatic reaction progresses was obtained and LDH activity was calculated in accordance with the following Mathematical formula 2. Here, LDH activity is expressed by an enzyme (LDH) unit, and 1U is defined as the amount of the enzyme that can reduce 1 μmol DCIP per minute at 37° C. in the presence of 10 mM L-lactate.
The pH of the PkLDH solution was adjusted to be 7.5 after each of the compounds was added. Heat treatment was carried out at 55° C. for 15 minutes. As a comparative example, an LDH solution prepared without adding any compound was subjected to the same experiment. It should be noted that, unless specified otherwise, the reagents used herein were all purchased from Tokyo Chemical Industry Co., Ltd. […]

[3] = test system: lactate dehydrogenase from Ogataea parapolymorpha (OgLDH); assay: Thermal stability of OgLDH (residual activity ratio after heat treatment); conditions: OgLDH 2 U/mL, potassium phosphate buffer pH 7.5, 50°C for 15 minutes; for LDH stability improving effect: compound 300 mM
Protocol: as §1, §2
(§3) Stability evaluation tests were conducted to check the improvement effect of malic acid on the stability of various LDHs. […] Each of these diluted enzyme solutions (a mixture of an enzyme and L-malic acid, LDH concentration: 2 U/mL, L-malic acid concentration: 300 mM) was heated in accordance with the thermal-stability evaluation method described in Section 4. More specifically, PkLDH was treated at 55° C., whereas, CaLDH and OgLDH were treated at 50° C. for 15 minutes and then the residual activity ratio (%) was calculated, based on the activity before heating taken as 100. As a comparative example, a sample without adding any L-malic acid in the enzyme diluent was subjected to the same experiment, and the ratio of residual activity in both cases were compared.
(§4) Using the purified OgLDH preparation obtained above, the ratios of remaining activities (%) in the presence and absence of a LDH stabilizer were compared in accordance with the LDH thermal stability evaluation method described in Section 4. In this manner, a stabilizer was searched.
The pH of the LDH solution was adjusted to be 7.5 after each of the compounds was added. Heat treatment was carried out at 50° C. for 15 minutes.

[4] = biological target: T1, lactate dehydrogenase from Saccharomyces cereviciae (ScLDH) (Saccharomyces cerevisiae, UniProt P00175); assay: Thermal stability of ScLDH (supernatant of crushed bacterial cells); conditions: ScLDH 2 U/mL; compound 300 mM; potassium phosphate buffer pH 7.5; 40°C for 15 minutes
T1 construct: made in house; host or cells: Escherichia coli BL21 (pKK223-3-ScLDH); unpurified supernatant of crushed cells
T1 sequence (P00175 86-591): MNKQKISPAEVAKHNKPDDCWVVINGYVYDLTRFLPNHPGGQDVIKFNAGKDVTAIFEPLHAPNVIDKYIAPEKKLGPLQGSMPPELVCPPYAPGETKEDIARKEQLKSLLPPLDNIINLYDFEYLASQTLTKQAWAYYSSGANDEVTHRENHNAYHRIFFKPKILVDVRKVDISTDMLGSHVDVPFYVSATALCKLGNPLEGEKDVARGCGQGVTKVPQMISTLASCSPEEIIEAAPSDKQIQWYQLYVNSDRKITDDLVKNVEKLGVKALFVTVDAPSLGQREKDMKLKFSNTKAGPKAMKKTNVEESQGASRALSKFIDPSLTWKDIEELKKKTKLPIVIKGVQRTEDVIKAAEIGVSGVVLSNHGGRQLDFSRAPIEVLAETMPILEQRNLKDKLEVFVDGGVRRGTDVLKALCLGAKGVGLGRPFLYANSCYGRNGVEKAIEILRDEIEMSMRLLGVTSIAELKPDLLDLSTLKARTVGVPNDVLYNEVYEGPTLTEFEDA
Protocol: as §1, §2
as §4, with “supernatant of a solution comprising crushed ScLDH bacterial cells” for “purified OgLDH preparation”
The pH of the LDH solution was adjusted to be 7.5 after each of the compounds was added. Heat treatment was carried out at 40° C. for 15 minutes.

[5] = test system: lactate dehydrogenase from Pichia kudriavzevii (PkLDH); assay: Thermal stability of PkLDH in 150 mM HEPES buffer; conditions: PkLDH 2 U/mL; 150 mM HEPES buffer pH 7.5; added compound 300 mM; 55°C for 15 minutes
Protocol: as §1
as §2, with “Here, LDH activity is expressed by an enzyme (LDH) unit, and 1U is defined as the amount of the enzyme that can reduce 1 μmol DCIP per minute at 37° C. in the presence of 10 mM L-lactate.” left out

[6] = test system: lactate dehydrogenase from Candida inconspicua (CaLDH); assay: Thermal stability of CaLDH (residual activity ratio after heat treatment); conditions: CaLDH 2 U/mL, potassium phosphate buffer pH 7.5, 50°C for 15 minutes; for improvement effect on the stability of LDH: compound 300 mM
Protocol: as §1, §2
as §3, with “As a comparative example, a sample without adding any L-malic acid in the enzyme diluent was subjected to the same experiment, and the ratio of residual activity in both cases were compared.” left out

[7] = added compound 300 mM, 150 mM potassium phosphate buffer pH 7.5, 0.15% BSA, 55°C for 15 minutes

## O=C([O-])CC(O)C(=O)[O-].[Na+].[Na+] [L-sodium malate]
[1]
  Current value 5 second later (μA), 0 mM lactate: 0.43 μA
  Current value 5 second later (μA), 5 mM lactate: 94.4 μA

## O[C@H]1[C@H](O)[C@@H](O)[C@H](O)[C@@H](O)[C@H]1O [myo-inositol]
[1]
  Current value 5 second later (μA), 0 mM lactate: 0.23 μA
  Current value 5 second later (μA), 5 mM lactate: 104.4 μA

## O=C(O)/C=C\C(=O)O [Maleic acid, maleic acid]
[2]; [7]
  Residual activity ratio (%): 45%

## OC[C@H]1O[C@H](O[C@H]2O[C@H](CO)[C@@H](O)[C@H](O)[C@H]2O)[C@H](O)[C@@H](O)[C@@H]1O [Trehalose dihydrate, trehalose dihydrate]
[2]; [7]
  Residual activity ratio (%): 41%

## N[C@@H](CC(=O)O)C(=O)[O-].[Na+] [Sodium aspartate, L-sodium aspartate]
[2]; [7]
  Residual activity ratio (%): 64%

## Cl.NCCCC[C@H](N)C(=O)O [L-lysine hydrochloride]
[3]
  LDH stability improving effect: 66%

## DL-leucine acid
[2]; [7]
  Residual activity ratio (%): 92%

## O=C(O)C[C@H](O)C(=O)O [L-malic acid]
[3]; added compound 300 mM
  Residual activity ratio (%) OgLDH: 88%
[4]
  stability improving effect on ScLDH: 41%
[5]
  Residual activity ratio (%): 100%
[6]; added compound 300 mM
  Residual activity ratio (%) CaLDH: 45%
[2]; [7]
  Residual activity ratio (%): 80%
[2]; final concentration of malic acid 10 mM, 55°C for 15 min
  Residual activity ratio (%): 36%
[2]; final concentration of malic acid 30 mM, 55°C for 15 min
  Residual activity ratio (%): 44%
[2]; final concentration of malic acid 100 mM, 55°C for 15 min
  Residual activity ratio (%): 52%
[2]; final concentration of malic acid 500 mM, 55°C for 15 min
  Residual activity ratio (%): 90%

## O=C(O)C[C@@H](O)C(=O)O [D-malic acid]
[2]; [7]
  Residual activity ratio (%): 47%

## NCC(=O)O [glycine]
[3]
  LDH stability improving effect: 11%

## N.N.O=S(=O)(O)O [Ammonium sulfate, ammonium sulfate]
[4]
  stability improving effect on ScLDH: 24%
[2]; [7]
  Residual activity ratio (%): 54%

## O=C([O-])CC(O)(CC(=O)[O-])C(=O)[O-].[Na+].[Na+].[Na+] [Sodium citrate, sodium citrate]
[2]; [7]
  Residual activity ratio (%): 42%

## O=C(O)/C=C/C(=O)O [Fumaric acid, fumaric acid]
[2]; [7]
  Residual activity ratio (%): 41%

## O=C([O-])[C@H](O)[C@@H](O)[C@H](O)[C@H](O)CO.[Na+] [Sodium gluconate, sodium gluconate]
[2]; [7]
  Residual activity ratio (%): 57%

## O=S(=O)([O-])[O-].[Na+].[Na+] [Sodium sulfate, sodium sulfate]
[2]; [7]
  Residual activity ratio (%): 50%

## OC[C@H]1O[C@@](CO)(O[C@H]2O[C@H](CO)[C@@H](O)[C@H](O)[C@H]2O)[C@@H](O)[C@@H]1O [Sucrose, sucrose]
[2]; [7]
  Residual activity ratio (%): 42%

## OC[C@H]1O[C@H](O[C@H]2[C@H](O)[C@@H](O)C(O)O[C@@H]2CO)[C@H](O)[C@@H](O)[C@@H]1O (mixture of isomers) [maltose monohydrate]
[6]
  improvement effect on the stability of LDH: 5%

## O=C(O)CC(=O)C(=O)O [Oxaloacetic acid, oxaloacetic acid]
[2]; [7]
  Residual activity ratio (%): 45%

## O=C(O)C(O)Cc1ccccc1 (racemic) [DL-phenyllactic acid, DL-3-phenyllactic acid]
[2]; [7]
  Residual activity ratio (%): 87%

## N[C@@H](Cc1c[nH]cn1)C(=O)O [L-histidine]
[3]
  LDH stability improving effect: 27%

## O=C(O)CN(CCN(CC(=O)O)CC(=O)O)CC(=O)O [ethylenediaminetetraacetic acid]
[6]
  improvement effect on the stability of LDH: 56%

## O=C(O)CCC(=O)O [Succinic acid, succinic acid]
[2]; [7]
  Residual activity ratio (%): 54%
